# “And” between values parts separate entries of the source, which are not always exact repeats. Identical values can stand only once. After the bases stand the sugars from the 5' end (letter, count) and the backbone: PS all phosphorothioate, else s phosphorothioate and o phosphodiester by linkage. Methylation of C is not given here. e = 2'-O-(2-methoxyethyl) (MOE); k = constrained ethyl (cEt); d = 2'-deoxy (DNA)
# Biological target: IRF4
# Conditions: ASO
Sequence,"target mRNA inhibition (MM.1R, 1 µM)","target mRNA inhibition (SK-MEL-28, 4 µM)",further results
"TAGTTGTCTGGCTAGC (sugars k3 d10 k3, PS)",32% and 33%,–,"target mRNA inhibition (MM.1R, 0.0625 µM): 4% and 7%; target mRNA inhibition (MM.1R, 0.25 µM): 16% and 24%; target mRNA inhibition (MM.1R, 4 µM): 68%"
"ACCATTACTTAGACAT (sugars k3 d10 k3, PS)",–,65%,–
"AAGCATTTTATCATCC (sugars kkddddddddddkeke, PS)",20%,–,–
"ACACTTTTAGAGAGGA (sugars k3 d9 k3 e1, PS)",29%,–,–
"GCATAGAGCCCGTCGG (sugars k3 d10 k3, PS)",–,50%,–
"CATGGTTACTAATTCC (sugars k3 d10 k3, PS)",25%,–,–
"AAACGGCCTGGAGGTG (sugars k3 d10 k3, PS)",11%,–,–
"AGATACAAAACGGACT (sugars k3 d10 k3, PS)",-15%,–,–
"CCCAAAATACTTTGCA (sugars k3 d10 k3, PS)",–,64%,–
"AGCATTTTATCATCCG (sugars kkdddddddddekeke, PS)",46%,–,–
"GCAGCTTCTCAATGTT (sugars k3 d10 k3, PS)",–,43%,–
"TGTAGTATGAGAAACG (sugars kkddddddddddkeke, PS)",10%,–,–
"GATACAAAACGGACTG (sugars k3 d10 k3, PS)",–,44%,–
"GATAACGAGGTGCCTT (sugars k3 d10 k3, PS)",–,18%,–
"TACTTGGACAGAAGGG (sugars k3 d10 k3, PS)",–,62%,–
"TTATATATGACGACTT (sugars k3 d10 k3, PS)",–,35%,–
"GGACACCACCTCGAGG (sugars k3 d10 k3, PS)",1%,–,–
"CTTAGAATGAGAGGTG (sugars k3 d10 k3, PS)",1%,–,–
"GCAAGCTGAATGCTCT (sugars k3 d10 k3, PS)",–,53%,–
"TGATAGTGGTGATGTC (sugars k3 d10 k3, PS)",–,54%,–
"AATCTGGATGAGCTTA (sugars k3 d10 k3, PS)",4%,–,–
"GGAACTAGTCGACAGC (sugars k3 d10 k3, PS)",18%,–,–
"CAAGCATAAAAGGTTC (sugars k3 d10 k3, PS)",–,29%,–
"TACTAGATTGTAGGAC (sugars k3 d10 k3, PS)",–,27%,–
"TGTAATGTAGGGATAC (sugars k3 d10 k3, PS)",–,53%,–
"CAATTTACATCTTACT (sugars k3 d10 k3, PS)",–,21%,–

Sequence,"target mRNA inhibition (MM.1R, 1 µM)","target mRNA inhibition (SK-MEL-28, 4 µM)",further results
"TTGAGGTTTTCCTAAA (sugars k3 d10 k3, PS)",–,29%,–
"CTATAGTGTTCCAGGA (sugars kkdddddddddkdkdk, PS)",49%,–,"target mRNA inhibition (MM.1R, 0.074 µM): 19%; target mRNA inhibition (MM.1R, 0.222 µM): 23%; target mRNA inhibition (MM.1R, 0.666 µM): 42%; target mRNA inhibition (MM.1R, 2 µM): 68%"
"GACATACCTACAAGCA (sugars k3 d10 k3, PS)",–,50%,–
"AAAAATATAACGGTGT (sugars k3 d10 k3, PS)",–,24%,–
"GCTAAACCTGGCACCA (sugars k3 d10 k3, PS)",7%,–,–
"TAATCTGTATAGTTCT (sugars k3 d10 k3, PS)",42%,–,–
"GTCTGAGATGTCCAGC (sugars k3 d10 k3, PS)",7%,–,–
"GGTACGGGATTTCCGG (sugars k3 d10 k3, PS)",12%,–,–
"ATCGAGATCAGTCTCA (sugars k3 d10 k3, PS)",–,76%,–
"TCTGTATAGTTCTCAA (sugars k3 d10 k3, PS)",42% and 40%,–,"target mRNA inhibition (MM.1R, 0.0625 µM): -2% and 0%; target mRNA inhibition (MM.1R, 0.25 µM): 16% and 26%; target mRNA inhibition (MM.1R, 4 µM): 69% and 71%"
"TTCTAGGTAATCTGTA (sugars k3 d10 k3, PS)",–,38%,–
"AAGTGGAGGTCTTTGG (sugars k3 d10 k3, PS)",–,66%,–
"ATGTGTATTACTCTTA (sugars kdddddddddkekeke, PS)",36% and 49%,–,–
"ACGACTTAAGCTAAAC (sugars k3 d10 k3, PS)",–,58%,–
"AGTGTCTAAAGTCCCA (sugars kkdddddddddekeke, PS)",18% and 19%,–,–
"GGAAGCACTGGCATCG (sugars k3 d10 k3, PS)",–,55%,–
"TCTATAGTGTTCCAGG (sugars kddddddddddkekek, PS)",16%,–,–
"CTTGATAAAGGCTGAA (sugars kkdddddddddkekek, PS)",12%,–,–
"TATAATTGGCACGAGG (sugars k3 d10 k3, PS)",–,41%,–
"CCAGGTTAAACAGGAA (sugars k3 d10 k3, PS)",–,6%,–
"CGTGTGCTTGCCAAGC (sugars k2 d9 e3 k2, PS)",60% and 66%,–,–
"CATTTACTGTTACCGA (sugars k3 d10 k3, PS)",–,79%,"target mRNA inhibition (MM.1R, 0.074 µM): -14%; target mRNA inhibition (MM.1R, 0.222 µM): 0%; target mRNA inhibition (MM.1R, 0.666 µM): -9%; target mRNA inhibition (MM.1R, 2 µM): 10%"
"AGTATGAGAAACGGCC (sugars kkdddddddddekeke, PS)",11%,–,–
"GACTAACTCTCCTGTT (sugars k3 d10 k3, PS)",–,17%,–
"GTCTACTTGAGTCTGT (sugars k3 d10 k3, PS)",–,51%,–
"GGCCACATTAGCAATT (sugars k3 d10 k3, PS)",0%,–,–

Sequence,"target mRNA inhibition (MM.1R, 1 µM)","target mRNA inhibition (SK-MEL-28, 4 µM)",further results
"TGCTTGAGGTTTTCCT (sugars k3 d10 k3, PS)",–,80% and 76%,–
"AAGCAGTGATGTCAGG (sugars kkdddddddddekeke, PS)",65%,–,–
"AATCTTCTGCTGATCC (sugars k3 d10 k3, PS)",–,72%,–
"GTTGGCTGGTCTTTGT (sugars k2 d9 e3 k2, PS)",24%,–,–
"TAAGAGGGCAGTCAAT (sugars k3 d10 k3, PS)",–,17%,–
"GCATAGGTCCTTCAGA (sugars k3 d10 k3, PS)",–,31%,–
"TTCTAATGGTGCTCCT (sugars k3 d10 k3, PS)",–,7%,–
"CTAATCCACAATCAGC (sugars k3 d10 k3, PS)",–,45%,–
"CCAGGAAACCGCTGGC (sugars k3 d10 k3, PS)",–,38%,–
"GGCGGAGCATCAACAA (sugars k3 d10 k3, PS)",–,60%,–
"ACTGCTTGAGGTTTTC (sugars kkkddddddddkekek, PS)",32%,–,–
"ACTGAGTGTGCAGTTC (sugars k3 d10 k3, PS)",–,36%,–
"TGTGTCAAAGAGCTTG (sugars k4 d8 k4, PS)",–,26%,–
"GAAGCATTTTATCATC (sugars kkddddddddddkeke, PS)",-7%,–,–
"ATATACATTGAGGCAT (sugars k3 d10 k3, PS)",-31%,–,–
"TGCCTAGGACTAAGGA (sugars k3 d10 k3, PS)",–,26%,–
"GGTGGCTCAGCAGCTT (sugars k3 d10 k3, PS)",–,37%,–
"AGACAGGTCTCTACCT (sugars k3 d10 k3, PS)",-12%,–,–
"CTACATTTCTTATGCA (sugars k3 d10 k3, PS)",–,39%,–
"CTTGATAAAGGCTGAA (sugars kkkdddddddddkeke, PS)",24%,–,–
"AAGAAGCAAGTCGGTC (sugars k3 d10 k3, PS)",–,55%,–
"ACCTGGCAACCATTTT (sugars k4 d8 k4, PS)",–,19%,–
"AGTCACGCAATGGCAA (sugars k3 d10 k3, PS)",–,50%,–
"CCTGTGGTGGAACTCT (sugars k3 d10 k3, PS)",–,27%,–
"TGGAACTCTAGTGTCC (sugars k3 d10 k3, PS)",–,2%,–
"GACCATCTGATCCGGA (sugars k3 d10 k3, PS)",2%,–,–

Sequence,"target mRNA inhibition (MM.1R, 1 µM)","target mRNA inhibition (SK-MEL-28, 4 µM)",further results
"TGATAGCTGAGCTGAT (sugars kkddddddddddkeke, PS)",-17%,–,–
"GGCAGTGGAGCTCCAC (sugars k3 d10 k3, PS)",–,73%,–
"GAGGAACTAGTCGACA (sugars k3 d10 k3, PS)",–,39%,–
"CGTAGTCACGCAATGG (sugars k3 d10 k3, PS)",15%,–,–
"GATGACTCCATGAGGT (sugars k3 d10 k3, PS)",–,67%,–
"GCAGCCAAGGATAACC (sugars k3 d10 k3, PS)",6%,–,–
"ACCATGTTCCTGAAGA (sugars k3 d10 k3, PS)",–,44%,–
"GGGAGATCCGGCAGCC (sugars k4 d8 k4, PS)",–,-13%,–
"GGACGCACGGAGAGGG (sugars k3 d10 k3, PS)",15%,–,–
"TCAAAAGGTAGTAGAC (sugars k3 d10 k3, PS)",–,29%,–
"TCCTAAATCACCCTGG (sugars k3 d10 k3, PS)",–,21%,–
"AGTATGAGAAACGGCC (sugars kddddddddddkekek, PS)",10%,–,–
"GTAGGTAGGCACCTGT (sugars k3 d10 k3, PS)",–,75%,–
"CAGAGCTCCGGAGTCA (sugars k3 d10 k3, PS)",-6%,–,–
"TGATGTGATAGCTGAG (sugars kddddddddddkekek, PS)",18%,–,–
"CTTTGAGGCTGCGAAG (sugars k3 d10 k3, PS)",2%,–,–
"AACCAGCACAGTTCTC (sugars k3 d10 k3, PS)",–,-18%,–
"AGCTTAGTCACCACGG (sugars k3 d10 k3, PS)",–,67%,–
"TTATATACTGGTTGGT (sugars k3 d10 k3, PS)",–,49%,–
"GTGCAAGATGACTCCA (sugars k3 d10 k3, PS)",–,56%,–
"AAGTTCATGTAAAGTC (sugars kkdddddddddkdkdk, PS)",32% and 34%,–,–
"AACACTTGGAGAAGTC (sugars k3 d10 k3, PS)",–,43%,–
"TCTCCAAAGCATAGAG (sugars k3 d10 k3, PS)",-8%,–,–
"AAGTGTCTAAAGTCCC (sugars k3 d10 k3, PS)",50% and 41%,–,–
"CTGAGATAGGAAGCAC (sugars k3 d10 k3, PS)",–,26%,–
"GGCACATCAATGTTTT (sugars kkdddddddddekeke, PS)",22% and 26%,–,–

# From the OligoGym collection
